Columns and labels:
rat brain tissue slices = assay: calcein AM cell viability staining of brain slices subjected to hypoxia; format: cell-based; conditions: calcein AM MFI, Maraviroc 50 μM, trifluoperazine 100 μM, 1 hour pre-treatment, 30 minutes hypoxia; for Significant? (Dunn's multiple comparisons test vs. vehicle control): Alpha 0.05; for Mean rank 2 (mean rank of treatment group, Kruskal-Wallis): vehicle control mean rank 11.73
Experimental: Brain slices were pre-treated for 1 hour with final concentrations of Maraviroc (50 μM), trifluoperazine (100 μM), and both drugs trifluoperazine and maraviroc against vehicle control for 1 hour, before being subjected to 30 minutes of hypoxia.
Damage to the brain tissue was determined by staining the tissue with acetoxymethyl calcein (calcein AM), available from Abcam Ltd, Cambridge, UK and Thermo Fisher, USA. The assay is a quantitative assay used to determine cell viability.

CCR5 = CCR5 (Mus musculus, UniProt P51682); conditions: compared with CCR5 knockdown; cited from earlier work
Chain of CCR5 (P51682 whole entry): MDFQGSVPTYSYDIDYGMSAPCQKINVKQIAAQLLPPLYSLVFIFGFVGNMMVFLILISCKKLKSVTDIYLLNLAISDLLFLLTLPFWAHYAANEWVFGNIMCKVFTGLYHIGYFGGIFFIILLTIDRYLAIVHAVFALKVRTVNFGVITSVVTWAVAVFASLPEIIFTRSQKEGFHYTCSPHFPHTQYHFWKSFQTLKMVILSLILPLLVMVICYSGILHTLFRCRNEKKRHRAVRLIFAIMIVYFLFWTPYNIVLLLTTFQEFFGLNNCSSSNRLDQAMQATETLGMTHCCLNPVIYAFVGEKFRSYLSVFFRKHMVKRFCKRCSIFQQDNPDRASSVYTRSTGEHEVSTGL

Row | Compound | Significant? (Dunn's multiple comparisons test vs. vehicle control) (rat brain tissue slices) | Mean rank diff. (Dunn's multiple comparisons test, vehicle control vs. treatment) (rat brain tissue slices) | Summary (significance stars, Dunn's multiple comparisons test vs. vehicle control) (rat brain tissue slices) | Z (Dunn's multiple comparisons test vs. vehicle control) (rat brain tissue slices) | Mean rank 2 (mean rank of treatment group, Kruskal-Wallis) (rat brain tissue slices) | motor recovery post-stroke and cognitive decline post traumatic brain injury (CCR5)
1 | CN1CCN(CCCN2c3ccccc3Sc3ccc(C(F)(F)F)cc32)CC1 [TFP, trifluoperazine] | Yes | −25.87 | *** ((***) p≤001) | 4.056 | 37.60 | –
2 | Maraviroc | Yes | −22.07 | ** ((**) p≤0.01) | 3.460 | 33.80 | produced similar effects on motor recovery post-stroke and cognitive decline post traumatic brain injury

Reference: patent US20240226108A9, “TREATMENT OF BRAIN INJURIES” (ASTON UNIVERSITY, priority 2021, published 2024)
